We go through 4 molecules from paper PMC11245519, “Ubiquitous purine sensor modulates diverse signal transduction pathways in bacteria” (Nature Communications, 2024).

Each structure is given as a SMILES string.

For assay [1], the system named is R6 diguanylate cyclase (VC2224) expressed in P. putida KT2440 pCdrA::gfpC. Format: cell-based.
Assay [2] addresses T1, R1 (WP_219614703-LBD) (Aeromonas salmonicida, UniProt T0PLV6). Kind of assay: Microcalorimetric titration (ITC) of the R1 LBD with ligands. Format: binding. To be noted: ITC.
The subject of assay [3] is R11 (WP_162024566-LBD). Description: Thermal shift assay of the R11 LBD. Format: binding, Lentimonas sp. CC4. To be noted: change in Tm, threshold 2 °C.
The target of assay [4] is T2, R14 (WP_021170906-LBD) (Sporomusa ovata, UniProt A0A0U1L1T7). Description: Microcalorimetric titration (ITC) of the R14 LBD with ligands. The assay is classed as binding. To be noted: ITC; for Kd: read-out: Dissociation constant, R14; for N value, R14: One binding site model, * = hyperbolic curve.
The next assay concerns R4 (WP_199478134-LBD). Kind of assay: Thermal shift assay of the R4 LBD. Format: binding, Marinomonas spartinae. To be noted: change in Tm, threshold 2 °C.
Another assay deals with R13 (WP_167859577-LBD). The assay is classed as binding, Paenibacillus cymbidii. To be noted: change in Tm, threshold 2 °C; 2 mM ligand (Supplementary Fig. 7).
Assay [5] has as its target T3, R6 (WP_185834821-LBD) (Vibrio cholerae, UniProt Q9KPY8). Kind of assay: biochemical. Format: binding.
For assay [6], the target named is T4, R15 (WP_207952809-LBD) (Paenibacillus agricola, UniProt A0ABX0IZG8). Description: Microcalorimetric titration (ITC) of the R15 LBD with ligands. Format: binding, Paenibacillus sp. S3N08. To be noted: for Kd: pH 7.0, read-out: Dissociation constant, R15; for N value, R15: One binding site model, * = hyperbolic curve.
Assay [7] has as its system R5 (WP_131005693-LBD). Description: Thermal shift assay of the R5 LBD. The assay is classed as binding, Clostridioides difficile. To be noted: change in Tm, threshold 2 °C.
Another assay relates to R10 (WP_110129388-LBD). Format: binding, Coraliomargarita sinensis. The following applies: change in Tm, threshold 2 °C; for Binding in thermal shift assay, R10: 2 mM ligand (Supplementary Fig. 7).
In a further assay the target is R8 (WP_227113344-LBD) (Eggerthella sinensis, UniProt A0ABX9HL97). Kind of assay: Microcalorimetric titration (ITC) of the R8 LBD with ligands. The assay is classed as binding.
The test system of assay [8] is R11 (WP_162024566-LBD). Kind of assay: Microcalorimetric titration (ITC) of the R11 LBD with ligands. The assay is classed as binding, Lentimonas sp. CC4. To be noted: 25 °C, pH 7.0.
Assay [9] concerns the target T4, R15 (WP_207952809-LBD). Kind of assay: Thermal shift assay of the R15 LBD. The assay is classed as binding, Paenibacillus sp. S3N08. The following applies: change in Tm, threshold 2 °C.
Assay [10] has as its target T3, R6 (WP_185834821-LBD). Description: Thermal shift assay of the R6 LBD. The assay is classed as binding. The following applies: change in Tm, threshold 2 °C.
For assay [11], the system named is dCache_1PU domains (11 proteins analyzed). Kind of assay: Summary of binding data (thermal shift assays and ITC) for the 11 dCache_1PU proteins. The following applies: of the 11 proteins analyzed.
The test system of assay [12] is R5 (WP_131005693-LBD). Description: Microcalorimetric titration (ITC) of the R5 LBD with ligands. Format: binding, Clostridioides difficile. The following applies: 25 °C, pH 7.0.
The target of assay [13] is T2, R14 (WP_021170906-LBD). Description: Thermal shift assay of the R14 LBD. Format: binding. The following applies: change in Tm, threshold 2 °C.
For assay [14], the target named is T1, R1 (WP_219614703-LBD). The assay is classed as binding. To be noted: change in Tm, threshold 2 °C.
The mark [15] stands for this setting: One binding site model, * = hyperbolic curve.

T2 sequence (A0A0U1L1T7 entry or part of it): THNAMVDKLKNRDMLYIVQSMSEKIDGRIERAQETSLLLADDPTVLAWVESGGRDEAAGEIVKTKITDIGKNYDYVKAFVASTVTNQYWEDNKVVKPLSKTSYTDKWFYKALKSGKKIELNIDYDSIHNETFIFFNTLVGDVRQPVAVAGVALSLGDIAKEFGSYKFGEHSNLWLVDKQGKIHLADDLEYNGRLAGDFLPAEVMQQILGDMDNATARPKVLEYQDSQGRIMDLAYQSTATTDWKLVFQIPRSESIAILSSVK
T4 sequence (A0ABX0IZG8 entry or part of it): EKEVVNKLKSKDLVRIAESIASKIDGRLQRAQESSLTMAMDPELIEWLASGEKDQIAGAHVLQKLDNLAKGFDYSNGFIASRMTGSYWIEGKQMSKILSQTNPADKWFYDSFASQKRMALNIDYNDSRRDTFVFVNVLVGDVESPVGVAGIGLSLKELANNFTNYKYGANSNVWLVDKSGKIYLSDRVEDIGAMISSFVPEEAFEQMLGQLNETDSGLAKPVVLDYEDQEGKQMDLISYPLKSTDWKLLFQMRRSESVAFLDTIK

Take `Nc1nc2c(ncn2[C@@H]2O[C@H](CO)[C@@H](O)[C@H]2O)c(=O)[nH]1` [Guanosine]: the “Concentration causing high c-di-GMP levels” value in assay [1] (agar plates, wild-type R6 (VC2224)) was 1 mM. Also, the “Concentration at which colonies became wrinkly (onset of the response)” value in [1] (minimal medium agar plates, 24 h, 30 °C, wild-type R6) came to 100 µM. In addition, the Kd stood at 1.2 ± 0.1 µM on R1 (WP_219614703-LBD) [2] (25 °C, pH 7.0, read-out: Dissociation constant, R1); 25 ± 4.9 µM at R14 (WP_021170906-LBD) [4] (25 °C); 25 ± 5.2 µM at R6 (WP_185834821-LBD) [5]; 37 ± 4 µM on R15 (WP_207952809-LBD) [6] (25 °C). In addition, the “N value, R1” value at R1 (WP_219614703-LBD) [2] (setting [15]) stood at 0.21. Besides, the “Binding in thermal shift assay, R11” value with R11 (WP_162024566-LBD) [3] was “Tsa^c (binding observed in thermal shift assays, i.e., compounds caused changes in Tm of more than 2 °C)”. Also, the “N value, R14” value on R14 (WP_021170906-LBD) [4] amounted to 0.13. The “Binding in thermal shift assay, R4” value in the assay on R4 (WP_199478134-LBD) is “Nts^b (no binding observed in thermal shift assays, i.e., compounds caused changes in the midpoint of protein unfolding (Tm) of less than 2 °C)”. In the assay with R13 (WP_167859577-LBD), the “Binding in thermal shift assay, R13” value is “Nts^b (no binding observed in thermal shift assays, i.e., compounds caused changes in the midpoint of protein unfolding (Tm) of less than 2 °C)”. The “N value, R6” value on R6 (WP_185834821-LBD) [5] (ITC, One binding site model, * = hyperbolic curve) came to 0.35. Further, the “N value, R15” value on R15 (WP_207952809-LBD) [6] was 0.70. In the assay on R5 (WP_131005693-LBD) [7], the “Binding in thermal shift assay, R5” value is “Nts^b (no binding observed in thermal shift assays, i.e., compounds caused changes in the midpoint of protein unfolding (Tm) of less than 2 °C)”. Moreover, the “Binding in thermal shift assay, R10” value in the assay with R10 (WP_110129388-LBD) is “Tsa^c (binding observed in thermal shift assays, i.e., compounds caused changes in Tm of more than 2 °C)”.
As to `NC(=O)NC1NC(=O)NC1=O` (centres unmarked) [Allantoin], the “Binding in microcalorimetric titration, R8” value on R8 (WP_227113344-LBD) (25 °C, pH 6.0) is listed as “Nb^a”. For the same molecule, in the assay on R11 (WP_162024566-LBD) [8], the “Binding in microcalorimetric titration, R11” value is recorded as “Nb^a”. For the same molecule, the “Binding in microcalorimetric titration, R14” value at R14 (WP_021170906-LBD) [4] (25 °C) was “Nb^a”. Moreover, the “Binding in thermal shift assay, R4” value with R4 (WP_199478134-LBD) is “Nts^b (no binding observed in thermal shift assays, i.e., compounds caused changes in the midpoint of protein unfolding (Tm) of less than 2 °C)”. In addition, the “Binding in thermal shift assay, R13” value in the assay with R13 (WP_167859577-LBD) is “Nts^b (no binding observed in thermal shift assays, i.e., compounds caused changes in the midpoint of protein unfolding (Tm) of less than 2 °C)”. In addition, the “Binding in thermal shift assay, R15” value on R15 (WP_207952809-LBD) [9] was “Nts^b (no binding observed in thermal shift assays, i.e., compounds caused changes in the midpoint of protein unfolding (Tm) of less than 2 °C)”. Also, the “Binding in thermal shift assay, R5” value in the assay on R5 (WP_131005693-LBD) [7] was “Nts^b (no binding observed in thermal shift assays, i.e., compounds caused changes in the midpoint of protein unfolding (Tm) of less than 2 °C)”.
For `O=c1[nH]c(=O)c2nc[nH]c2[nH]1` [Xanthine], the “Binding in thermal shift assay, R6” value at R6 (WP_185834821-LBD) [10] is “Nts^b (no binding observed in thermal shift assays, i.e., compounds caused changes in the midpoint of protein unfolding (Tm) of less than 2 °C)”. Also, the “Proteins that bound / recognized the ligand” value in [11] is 2. The “Binding in microcalorimetric titration, R1” value on R1 (WP_219614703-LBD) [2] (25 °C, pH 7.0) is reported as “Nb^a”. For the same molecule, the “N value, R8” value at R8 (WP_227113344-LBD) (setting [15]) was found to be 0.15. In the assay with R11 (WP_162024566-LBD) [8], the “Binding in microcalorimetric titration, R11” value is listed as “Nb^a”. Moreover, the Kd on R14 (WP_021170906-LBD) [4] (25 °C) amounted to 5.1 ± 0.9 µM; on R15 (WP_207952809-LBD) [6] (25 °C), 7.6 ± 1.1 µM. For the same molecule, the “N value, R14” value on R14 (WP_021170906-LBD) [4] turned out to be 0.13. Also, in the assay with R5 (WP_131005693-LBD) [12], the “Binding in microcalorimetric titration, R5” value is “Nb^a”. For the same molecule, in the assay on R4 (WP_199478134-LBD), the “Binding in thermal shift assay, R4” value is “Nts^b (no binding observed in thermal shift assays, i.e., compounds caused changes in the midpoint of protein unfolding (Tm) of less than 2 °C)”. For the same molecule, the “Binding in thermal shift assay, R13” value in the assay on R13 (WP_167859577-LBD) is “Nts^b (no binding observed in thermal shift assays, i.e., compounds caused changes in the midpoint of protein unfolding (Tm) of less than 2 °C)”. Further, the “N value, R15” value on R15 (WP_207952809-LBD) [6] is given as 0.05. Moreover, in the assay on R10 (WP_110129388-LBD), the “Binding in thermal shift assay, R10” value was “Tsa^c (binding observed in thermal shift assays, i.e., compounds caused changes in Tm of more than 2 °C)”.
Turning to `O=c1[nH]c(=O)c2[nH]c(=O)[nH]c2[nH]1` [Uric acid], the “Binding in thermal shift assay, R6” value at R6 (WP_185834821-LBD) [10] was “Nts^b (no binding observed in thermal shift assays, i.e., compounds caused changes in the midpoint of protein unfolding (Tm) of less than 2 °C)”. Moreover, in the assay on R11 (WP_162024566-LBD) [8], the “Binding in microcalorimetric titration, R11” value is reported as “Nb^a”. Besides, the “Binding in microcalorimetric titration, R5” value in the assay on R5 (WP_131005693-LBD) [12] is recorded as “Nb^a”. In the assay on R4 (WP_199478134-LBD), the “Binding in thermal shift assay, R4” value is “Nts^b (no binding observed in thermal shift assays, i.e., compounds caused changes in the midpoint of protein unfolding (Tm) of less than 2 °C)”. For the same molecule, the “Binding in thermal shift assay, R13” value with R13 (WP_167859577-LBD) is “Nts^b (no binding observed in thermal shift assays, i.e., compounds caused changes in the midpoint of protein unfolding (Tm) of less than 2 °C)”. The “Binding in thermal shift assay, R14” value on R14 (WP_021170906-LBD) [13] is “Nts^b (no binding observed in thermal shift assays, i.e., compounds caused changes in the midpoint of protein unfolding (Tm) of less than 2 °C)”. Also, the “Binding in thermal shift assay, R1” value on R1 (WP_219614703-LBD) [14] is “Nts^b (no binding observed in thermal shift assays, i.e., compounds caused changes in the midpoint of protein unfolding (Tm) of less than 2 °C)”. Besides, at R15 (WP_207952809-LBD) [6] (25 °C, pH 7.0), the “Binding in microcalorimetric titration, R15” value is “Nb^a”. Further, the “Binding in thermal shift assay, R10 (Supplementary Table 3)” value in the assay on R10 (WP_110129388-LBD) (cells left empty in Table 3) was “Nts (No binding observed in thermal shift assays, i.e. compounds caused changes in the midpoint of protein unfolding (Tm) of less than 2 ºC)”.
